{"source": "PubChem BioAssay AID372", "about": "(MTDP, 2006)", "biological_target": "Gag-Pol polyprotein (Human immunodeficiency virus type 1 group M subtype B (isolate HXB2)) (UniProt P04585)", "assay": "RNase H inhibition, HIV 1 Gag Pol polyprotein, FRET biochemical assay, screening (AID 372)", "conditions": "HIV-1 RT RNase H, FRET RNA/DNA substrate fluorescence", "data": [{"compound": "O=C1c2ccccc2C(=O)N1c1ccc(-c2nc3ccc(N4C(=O)c5ccccc5C4=O)cc3[nH]2)cc1", "values": [{"measurement": "IC50", "result": 4, "unit": "µM"}]}]}
